The test system of the experiment is St6OMT2. Briefly: UPLC quantification of (S)-coclaurine formed; Hill function fit. The experiment is classed as biochemical, Stephania tetrandra. The settings on record: co-substrate S-adenosyl-L-methionine (1 mM in standard assay); 37°C; PBS; substrate 10–200 μM.

By Km is commonly meant the substrate concentration at which the rate is half of its maximum. Turning to `Oc1ccc(C[C@@H]2NCCc3cc(O)c(O)cc32)cc1` [(S)-norcoclaurine], the Km came to 28.2 µM.

(Values after PMC9009073, “Transcriptome Analysis of Stephania tetrandra and Characterization of Norcoclaurine-6-O-Methyltransferase Involved in Benzylisoquinoline Alkaloid Biosynthesis” (Frontiers in Plant Science, 2022).)
